Experimental data taken from patent publication US7737141B2, “Prodrug of cinnamide compound” (Eisai R&D Management Co., Ltd., priority 2006, dated 2010).
Read-outs that look alike come from different tables or passages of the source.

Experiment: Solubility test: apparent solubility in test solutions, HPLC-UV
Assay type: physicochemical
Details: for solubility: aqueous buffer, thermodynamic from solid
Protocol: Several milligram of each compound to be tested was precisely weighed, and 0.1 to 1.3 mL of the following test solutions were each added to the compound. The resulting mixture was stirred for several tens of seconds to several minutes for dispersing or dissolving the compound. Then, the supernatant was collected by centrifugation or filtration through a membrane. The concentration of the compound in the supernatant was quantitatively measured by an HPLC-UV method as an apparent solubility of the compound to each test solution.
pH 5: Diluted Mcllvaine buffer solution (KANTO Chemical Co. Inc.)
pH 7: GIBCO™ Dulbecco's phosphate-buffered saline (Invitrogen Corporation)

[1] = pH 7: Dulbecco's phosphate-buffered saline, read-out: Solubility at pH 7
[2] = diluted McIlvaine buffer solution, pH 5: Diluted Mcllvaine buffer solution, read-out: Solubility at pH 5

| Molecule | solubility [1] | solubility [2] | Solubility at pH 5 (pH 5: Diluted Mcllvaine buffer solution) | Solubility at pH 7 (pH 7: Dulbecco's phosphate-buffered saline) |
| --- | --- | --- | --- | --- |
| COc1cc(/C=C2\OC(C)(C)[C@H]3COC[C@@H](c4cc(F)c(F)c(F)c4)N3C2=O)ccc1-n1cc(C)[n+](COP(=O)(O)O)c1.O=C([O-])C(F)(F)F [Example 18, 3-{4-[(6R,9aR)-1,1-dimethyl-4-oxo-6-(3,4,5-trifluorophenyl)tetrahydro[1,4]oxazino[3,4-c][1,4]oxazine-(3Z)-ylidenemethyl]-2-methoxyphenyl}-5-methyl-1-phosphonooxymethyl-3H-imidazole-1-ium trifluoroacetate] | > 10000 µg/mL | > 10000 µg/mL | – | – |
| COc1cc(/C=C2\CCCN([C@H](c3cc(F)c(F)c(F)c3)[C@@H](C)O)C2=O)ccc1-n1cc(C)[n+](COP(=O)(O)O)c1.O=C([O-])C(F)(F)F [Example 4, 3-{4-{1-[(1R,2R)-2-hydroxy-1-(3,4,5-trifluorophenyl)propyl]-2-oxopiperidin-(3E)-ylidenemethyl}-2-methoxyphenyl}-5-methyl-1-(phosphonooxymethyl)-3H-imidazol-1-ium trifluoroacetate] | > 10000 µg/mL | > 10000 µg/mL | – | – |
| COc1cc(/C=C2\CC[C@H]3COC[C@@H](c4cc(F)c(F)c(F)c4)N3C2=O)ccc1-n1cc(C)[n+](COP(=O)(O)O)c1.O=C([O-])C(F)(F)F [Example 11, 3-{2-methoxy-4-[(4R,9aS)-6-oxo-4-(3,4,5-trifluorophenyl)hexahydropyrido[2,1-c][1,4]oxazin-(7E)-ylidenemethyl]phenyl}-5-methyl-1-phosphonooxymethyl-3H-imidazol-1-ium trifluoroacetate] | 8110 µg/mL | 7680 µg/mL | – | – |
| Cc1cn(-c2ccc(/C=C3\O[C@@H](C)CN([C@H](c4ccc(F)c(F)c4)[C@@H](C)O)C3=O)cc2F)c[n+]1COP(=O)(O)O.O=C([O-])C(F)(F)F [Example 9, 3-{4-{(S)-4-[(1R,2R)-1-(3,4-difluorophenyl)-2-hydroxypropyl]-6-methyl-3-oxomorpholin-(2Z)-ylidenemethyl}-2-fluorophenyl}-5-methyl-1-phosphonooxymethyl-3H-imidazol-1-ium trifluoroacetate] | 4720 µg/mL | 3450 µg/mL | – | – |
| COc1cc(/C=C2\O[C@@H](C)CN([C@H](c3cc(F)c(F)c(F)c3)[C@@H](C)O)C2=O)ccc1-n1cc(C)[n+](COP(=O)(O)O)c1.O=C([O-])C(F)(F)F [Example 12, 3-{4-{(S)-4-[(1R,2R)-2-hydroxy-1-(3,4,5-trifluorophenyl)propyl]-6-methyl-3-oxomorpholin-(2Z)-ylidenemethyl}-2-methoxyphenyl}-5-methyl-1-(phosphonooxymethyl)-3H-imidazol-1-ium trifluoroacetate] | 1830 µg/mL | 3440 µg/mL | – | – |
| COc1cc(/C=C2\O[C@@H](C)[C@H]3COC[C@@H](c4cc(F)c(F)c(F)c4)N3C2=O)ccc1-n1cc(C)[n+](COP(=O)(O)O)c1.O=C([O-])C(F)(F)F [Example 14, 3-{2-methoxy-4-[(1S,6R,9aR)-1-methyl-4-oxo-6-(3,4,5-trifluorophenyl)tetrahydro-[1,4]oxazino[3,4-c][1,4]oxazine-(3Z)-ylidenemethyl]phenyl}-5-methyl-1-phosphonooxymethyl-3H-imidazole-1-ium trifluoroacetate] | > 10000 µg/mL | > 10000 µg/mL | – | – |
| COc1cc(/C=C2\CC[C@H]3CCC[C@@H](c4ccc(Cl)cc4)N3C2=O)ccc1-n1cc(C)[n+](COP(=O)(O)O)c1.O=C([O-])C(F)(F)F [Example 13, 3-{4-[(6S,9aR)-6-(4-chlorophenyl)-4-oxohexahydroquinolizin-(3E)-ylidenemethyl]-2-methoxyphenyl}-5-methyl-1-phosphonooxymethyl-3H-imidazol-1-ium trifluoroacetate] | 9150 µg/mL | 9330 µg/mL | – | – |
| COc1cc(/C=C2\O[C@@H](C)[C@H]3CC[C@@H](c4cc(F)c(F)c(F)c4)N3C2=O)ccc1-n1cc(C)[n+](COP(=O)(O)O)c1.O=C([O-])C(F)(F)F [Example 16, 3-{2-methoxy-4-[(1S,6S,8aR)-1-methyl-4-oxo-6-(3,4,5-trifluorophenyl)tetrahydropyrrolo[2,1-c][1,4]oxazine-(3Z)-ylidenemethyl]phenyl}-5-methyl-1-phosphonooxymethyl-3H-imidazole-1-ium trifluoroacetate] | 1120 µg/mL | 1150 µg/mL | – | – |
| 1-{4-{(E)-1-{[(S)-1-(4-fluorophenyl)ethyl]-2-oxopiperidin-3-ylidene}methyl}-2-methoxyphenyl}-4-methyl-1H-imidazol-3-iomethyl monohydrogenphosphate [Example 2] | – | – | >10 mg/mL | >10 mg/mL |
| COc1cc(/C=C2\CC[C@H]3CC[C@@H](c4cc(F)c(F)c(F)c4)N3C2=O)ccc1-n1cc(C)[n+](COP(=O)(O)O)c1.O=C([O-])C(F)(F)F [Example 6, 3-{2-methoxy-4-[(3S,8aS)-5-oxo-3-(3,4,5-trifluorophenyl)hexahydroindolizin-(6E)-ylidenemethyl]phenyl}-5-methyl-1-phosphonooxymethyl-3H-imidazol-1-ium trifluoroacetate] | 8890 µg/mL | 9140 µg/mL | – | – |
| COc1cc(/C=C2\CC[C@H]3CC[C@@H](c4ccc(Cl)cc4)N3C2=O)ccc1-n1cc(C)[n+](COP(=O)(O)O)c1.O=C([O-])C(F)(F)F [Example 8, 3-{4-[(3S,8aS)-3-(4-chlorophenyl)-5-oxohexahydroindolizin-(6E)-ylidenemethyl]-2-methoxyphenyl}-5-methyl-1-(phosphonooxymethyl)-3H-imidazol-1-ium trifluoroacetate] | 1690 µg/mL | 960 µg/mL | – | – |
| COc1cc(/C=C2\O[C@@H](C)[C@H]3COC[C@@H](c4ccc(Cl)cc4)N3C2=O)ccc1-n1cc(C)[n+](COP(=O)(O)O)c1.O=C([O-])C(F)(F)F [Example 15, 3-{4-[(1S,6R,9aR)-6-(4-chlorophenyl)-1-methyl-4-oxotetrahydro[1,4]oxazino[3,4-c][1,4]oxazine-(3Z)-ylidenemethyl]-2-methoxyphenyl}-5-methyl-1-phosphonooxymethyl-3H-imidazole-1-ium trifluoroacetate] | > 10000 µg/mL | > 10000 µg/mL | – | – |
| COc1cc(/C=C2\CC[C@@H]3CCC[C@@H](c4cc(F)c(F)c(F)c4)N3C2=O)ccc1-n1cc(C)[n+](COP(=O)(O)O)c1.O=C([O-])C(F)(F)F [Example 10, 3-{2-methoxy-4-[(6S,9aS)-4-oxo-6-(3,4,5-trifluorophenyl)hexahydroquinolizin-(3E)-ylidenemethyl]phenyl}-5-methyl-1-(phosphonooxymethyl)-3H-imidazol-1-ium trifluoroacetate] | 9760 µg/mL | 9590 µg/mL | – | – |
| Cc1cn(-c2ccc(/C=C3\O[C@@H](C)CN([C@H](c4cc(F)c(F)c(F)c4)[C@@H](C)O)C3=O)cc2F)c[n+]1COP(=O)(O)O.O=C([O-])C(F)(F)F [Example 5, 3-[2-fluoro-4-[(S)-4-[(1R,2R)-2-hydroxy-1-(3,4,5-trifluorophenyl)propyl]-6-methyl-3-oxomorpholin-(2Z)-ylidenemethyl]phenyl]-5-methyl-1-phosphonooxymethyl-3H-imidazol-1-ium trifluoroacetate] | 460 µg/mL | 320 µg/mL | – | – |
| COc1cc(/C=C2\O[C@@H](C)[C@H]3COC[C@@H](c4ccc(F)c(F)c4)N3C2=O)ccc1-n1cc(C)[n+](COP(=O)(O)O)c1.O=C([O-])C(F)(F)F [Example 17, 3-{4-[(1S,6R,9aR)-6-(3,4-difluorophenyl)-1-methyl-4-oxotetrahydro[1,4]oxazino[3,4-c][1,4]oxazine-(3Z)-ylidenemethyl]-2-methoxyphenyl}-5-methyl-1-phosphonooxymethyl-3H-imidazole-1-ium trifluoroacetate] | 7550 µg/mL | > 10000 µg/mL | – | – |
| COc1cc(/C=C2\CCCN([C@@H](C)c3ccc(F)cc3)C2=O)ccc1-n1cc(C)[n+](COC(C)=O)c1.[I-] [Example 3, 1-acetoxymethyl-3-[4-{1-[(S)-1-(4-fluorophenyl)ethyl]-2-oxopiperidin-(3E)-ylidenemethyl]-2-methoxyphenyl}-5-methyl-3H-imidazol-1-ium iodide] | 1120 µg/mL | 1240 µg/mL | – | – |
